ChEMBL document CHEMBL1133989, “Which aminoglycoside ring is most important for binding? A hydropathic analysis of gentamicin, paromomycin, and analogues” (Bioorg Med Chem Lett, 2001)

Each compound was assayed on Ribosomal RNA A-site (assay: Binding affinity of aminoglycoside to 16S ribosomal RNA A-site in Escherichia coli).
Type: nucleic-acid assay
Work on `NC[C@@H]1O[C@H](O[C@H]2[C@@H](O)[C@H](O[C@@H]3[C@@H](O)[C@H](N)C[C@H](N)[C@H]3O[C@H]3O[C@H](CO)[C@@H](O)[C@H](O)[C@H]3N)O[C@@H]2CO)[C@H](N)[C@@H](O)[C@@H]1O` [PAROMOMYCIN] yielded a Kd of 200 nM. `NC[C@H]1O[C@H](O[C@H]2[C@H](O)[C@@H](O[C@H]3O[C@H](CO)[C@@H](O)[C@H](N)[C@H]3O)[C@H](N)C[C@@H]2N)[C@H](N)[C@@H](O)[C@@H]1O` [BEKANAMYCIN] was tested, and the Kd was 1400 nM. With `NC[C@@H]1O[C@@H](O[C@H]2[C@H](O)[C@@H](O[C@H]3O[C@H](CO)[C@@H](O)[C@H](N)[C@H]3O)[C@H](N)C[C@@H]2N)[C@@H](O)[C@H](O)[C@H]1O` [KANAMYCIN A] the Kd was 18000 nM. In the case of `NC[C@H]1O[C@H](O[C@H]2[C@H](O)[C@@H](O)[C@H](N)C[C@@H]2N)[C@H](N)[C@@H](O)[C@@H]1O` [NEAMINE], the Kd is reported as 7800 nM. `NC[C@H]1O[C@H](O[C@H]2[C@@H](O[C@@H]3O[C@H](CO)[C@@H](O[C@@H]4O[C@H](CO)[C@H](O)[C@H](O)[C@H]4O)[C@H]3O)[C@@H](O)[C@H](N)C[C@@H]2N)[C@H](N)[C@H](O)[C@@H]1O` was tested, and the Kd was 28000 nM. Work on `NC[C@H]1O[C@H](O[C@H]2[C@H](O[C@@H]3O[C@H](CO)[C@@H](O)[C@H]3O)[C@@H](O)[C@H](N)C[C@@H]2N)[C@H](N)[C@@H](O)[C@@H]1O` [RIBOSTAMYCIN] yielded a Kd of 25000 nM. With `NCCCNCC[C@H]1[C@@H](O)[C@H](O[C@H]2[C@@H](O)[C@H](N)C[C@H](N)[C@H]2O[C@H]2O[C@H](CN)[C@H](O)[C@H](O)[C@H]2N)O[C@@H]1CO` the Kd was 260 nM. `NCCC(O)C(=O)N[C@@H]1C[C@H](N)[C@@H](O[C@H]2O[C@H](CN)[C@@H](O)[C@H](O)[C@H]2N)[C@@H](O[C@@H]2O[C@H](CO)[C@@H](O)[C@H]2O)[C@H]1O` (stereo partly drawn) [BUTIROSIN B] showed a Kd of 27000 nM. Compound `NCCC1C(CO)OC(OC2C(O)C(N)CC(N)C2OC2OC(CN)C(O)C(O)C2N)C1O` (stereo not drawn) has a Kd of 1700 nM. `NCC1OC(OC2C(N)CC(N)C(O)C2OC2OC(CO)C(OC3OC(CN)C(O)C(O)C3O)C2O)C(N)C(O)C1O` (stereo not drawn) showed a Kd of 700 nM. Work on `NC[C@@H]1O[C@H](O[C@H]2[C@@H](O)[C@H](O[C@@H]3[C@@H](O)[C@H](N)C[C@H](N)[C@H]3O[C@H]3O[C@H](CN)[C@@H](O)[C@H](O)[C@H]3N)O[C@@H]2CO)[C@H](N)[C@@H](O)[C@@H]1O` [FRAMYCETIN] yielded a Kd of 19 nM. In the case of `N[C@H]1[C@@H](O[C@H]2[C@H](O)[C@@H](O)[C@H](N)C[C@@H]2N)O[C@H](CO)[C@@H](O)[C@@H]1O` [PAROMAMINE], the Kd is reported as < 100000 nM. `NC[C@H]1O[C@H](O[C@H]2[C@H](O)[C@@H](O[C@H]3O[C@H](CO)[C@@H](O)[C@H](N)[C@H]3O)[C@H](N)C[C@@H]2N)[C@H](N)C[C@@H]1O` [TOBRAMYCIN] showed a Kd of 1500 nM.
